According to US20040147562A1, “Methods of treating conditions associated with an EDG-1 receptor” (priority 2002, published 2004):

Columns and labels:
Edg-7 = biological target: T1, Edg-7 (Homo sapiens, UniProt Q9UBY5); assay: Intracellular calcium (FLIPR) assay, HTC cells expressing Edg-7; type: cell-based
T1 construct: expressed in transfected cells; host or cells: HTC rat hepatoma cells
T1 sequence (Q9UBY5 1-353): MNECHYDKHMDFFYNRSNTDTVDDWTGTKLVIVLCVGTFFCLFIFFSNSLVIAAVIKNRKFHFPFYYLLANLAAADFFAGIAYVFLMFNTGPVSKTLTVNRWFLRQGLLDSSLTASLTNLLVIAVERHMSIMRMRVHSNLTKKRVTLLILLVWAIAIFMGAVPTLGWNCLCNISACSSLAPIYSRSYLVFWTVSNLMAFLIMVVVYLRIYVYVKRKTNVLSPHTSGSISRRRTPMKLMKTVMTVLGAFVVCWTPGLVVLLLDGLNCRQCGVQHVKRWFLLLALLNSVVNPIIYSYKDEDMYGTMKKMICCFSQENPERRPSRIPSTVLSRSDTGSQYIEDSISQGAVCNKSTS

Null/Gqi = assay: Intracellular calcium (FLIPR) assay, Null/Gqi control cells; type: cell-based; settings: Rattus norvegicus; agonist
[1] = tested on: human peripheral blood mononuclear cells; assay: Migration of human peripheral blood mononuclear cells; type: cell-based; settings: chemoattractant; FIG. 9, 13
Procedure: S1P is a strong chemoattractant to human PBMCs. […] Several migration assays were performed to test this hypothesis and to determine the effect of Edg-1 agonists and antagonists on S1P mediated chemotaxis. The migration assays were performed according to the protocol described in Section 7.12, below. The results of theses assays are presented in FIG. 6, FIG. 7, FIG. 8, FIG. 9 and FIG. 13.
(§1) Cells were plated in a 24 well format using Fluoroblok filter insert plates ([…] pore size) or Fluoroblok matrigel coated filter insert plates (Becton Dickinson, San Diego, Calif.). The assay was a modified Boyden Chamber assay in which a cell suspension (1×10^5 cells/ml) was prepared in serum free medium and added to the top chamber. LPA or S1P (doses ranged from 0.1-10 μM in serum free medium) was added to the bottom chamber. Following a 20-24 hour incubation period, the number of cells migrating or invading into the lower chamber was quantitated by transferring the filter insert into a fresh 24-well plate containing 4 μg/ml calcein AM (Molecular Probes, Sunnyvale, Calif.) in Hank's Balanced Salt Solution and staining for one hour.
(§2) Detection was via fluorescent readout at 450 nm excitation/530 nm emission using a fluorimeter. The level of fluorescence correlated with cell number.
Human PBMCs are isolated from the buffy coats of healthy donors from the Stanford Blood Center. […]

murine CD4 T cells = assay: Murine CD4 T cell chemotactic response to exodus-2; type: cell-based
Procedure: To assess this modulation and to test the effects of Edg-1 agonists and antagonists on this effect, murine CD4 T cells chemotactic responses to exodus-2 were tested in the presence of S1P and the Edg-1 agonist 104. These experiments were performed according to the migration and invasion assay protocols described in Section 7.12, below.
The effects of Edg-1 antagonists on S1P regulation of the chemotactic response to exodus-2 were also assessed. This experiment was performed according to the migration and invasion assay protocols described in Section 7.12, below. […] Thus, these Edg-1 antagonists can antagonize both aspects of the regulation by S1P of exodus-2-mediated chemotaxis.
as §1, §2

human Edg-1 receptors [2] = biological target: T2, human Edg-1 receptors (Homo sapiens, UniProt P21453); assay: Intracellular calcium (FLIPR) assay, HTC cells expressing Edg-1; type: cell-based; set-up: expressed in transfected cells; host or cells: HTC rat hepatoma cells; settings: agonist; Edg 1/Gqi
Procedure: (§3) The compounds were tested in HTC cells expressing human Edg-1 receptors. […] The compounds were tested in this recombinant system first, and subsequently tested in cell lines expressing Edg-1 (in addition to other Edg receptors).
(§4) […] receptors such as Edg-1, couple to calcium effector pathways, and result in increases in intracellular calcium following receptor activation (An, 1998, J. Cell Biochem. Supp 30-31:147-157). This biological response lends itself to a very efficient, high-throughput screen using a Fluorescence Imaging Plate Reader (FLIPR; Molecular Devices, Sunnyvale, Calif.). The FLIPR system is a real-time, cell-based assay system with continuous fluorescence detection using a cooled CCD camera. The FLIPR system was used to develop an Edg-1 receptor screen. Rat hepatoma cells stably expressing Edg-1/3i3 chimera or Edg-1 and Gqi were plated on 384-well plates and loaded with a calcium dye loading kit (Molecular Devices, Sunnyvale, Calif.) for 1 hour at room temperature. Cells were then placed on the FLIPR^384 (Molecular Devices, Sunnyvale, Calif.) and excited by an argon laser at 488 nm. The data for the entire 384-well plate was updated every second. An integrated robotic pipettor allowed for simultaneous compound addition into each individual well in the plate.

[3] = tested on: human umbilical vein endothelial cells; assay: S1P induced calcium response in human umbilical vein endothelial cells; type: cell-based; settings: HUVEC; FIG. 4, 5
mouse T cells = assay: Mouse T cell migration in Transwell chambers with matrigel; type: cell-based; settings: in the presence of S1P; FIG. 14
Procedure: To further elucidate the role of the Edg-1 receptor in lymphocyte trafficking, migration of mouse T cells was analyzed in both in vitro and in vivo models. Migration of mouse T cells was first tested in Transwell chambers (Costar, Cambridge, Mass.) with polycarbonate fibers having a pore width of 8 μm, separated by a layer of matrigel. Stimulants S1P or exodus-2 were separately added to the bottom chamber. The effects of exodus-2 were tested alone, with S1P, and with S1P and Edg-1 antagonists 101 and 102.

human Edg-1 receptors [4] = biological target: T2, human Edg-1 receptors; assay: Intracellular calcium (FLIPR) assay, HTC cells expressing Edg-1; type: cell-based; set-up: Edg 1 IC50 μM; fused on or other part: in the chimera reading: the third intracellular loop (i3) of Edg-3 (S1PR3) in place of Edg-1's own
Procedure: as §3, §4

T2 sequence (P21453 whole entry): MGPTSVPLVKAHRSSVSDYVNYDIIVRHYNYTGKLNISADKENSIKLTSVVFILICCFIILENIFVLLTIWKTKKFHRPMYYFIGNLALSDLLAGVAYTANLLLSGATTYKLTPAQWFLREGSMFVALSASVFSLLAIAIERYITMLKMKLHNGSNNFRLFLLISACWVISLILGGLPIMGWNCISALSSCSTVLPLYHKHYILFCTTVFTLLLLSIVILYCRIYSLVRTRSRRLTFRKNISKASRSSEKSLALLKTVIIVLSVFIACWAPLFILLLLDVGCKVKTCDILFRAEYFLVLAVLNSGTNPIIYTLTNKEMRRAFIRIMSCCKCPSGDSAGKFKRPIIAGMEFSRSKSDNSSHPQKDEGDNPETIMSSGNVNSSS

SMILES: COc1cc(C(=O)c2cc(Cl)ccc2N)cc(OC)c1OC [Compound 104, (2-Amino-5-chlorophenyl)-(3,4,5-trimethoxyphenyl)methanone]
- EC50 (Edg-7; agonist): > 25 µM
- calcium response in HTC cells expressing Edg-7 (Edg-7; agonist, concentrations as high as 25 μM): did not elicit a calcium response
- EC50 (Null/Gqi): > 25 µM
- migration of human peripheral blood mononuclear cells [1]: stimulates migration of human peripheral blood mononuclear cells at micromolar concentrations
- concentration needed relative to S1P for same effect on chemotactic response to exodus-2 (murine CD4 T cells; FIG. 11): higher concentrations of 104 than S1P are required
- effect on chemotaxis of murine CD4 T cells to exodus-2 (murine CD4 T cells; low and high concentrations desensitize, moderate stimulate, FIG. 11): bell-shaped dose dependant response curve
- EC50 (human Edg-1 receptors [2]): 10 µM

SMILES: O=C(c1cccnc1)N1N=C(c2ccc(Br)cc2)CC1(O)C(F)(F)F (stereo not shown) [Compound 102]
- IC50 (Edg-7; Table 2, LPA-stimulated): > 20 µM
- inhibition of LPA-stimulated calcium increases in HTC cells expressing Edg-7 (Edg-7; concentrations as high as 20 μM): did not inhibit
- inhibition of S1P induced calcium responses [3]: inhibits S1P induced calcium responses in a dose-dependent manner
- effect on S1P-mediated desensitization of the chemotactic response to exodus-2 (murine CD4 T cells; high concentrations of S1P, FIG. 12): reverse S1P-mediated desensitization
- effect on S1P-mediated stimulation of the chemotactic response to exodus-2 (murine CD4 T cells; moderate concentrations of S1P, FIG. 12): inhibit S1P-mediated stimulation
- effect on exodus-2-stimulated T cell migration (mouse T cells): enhance exodus-2-stimulated migration
- melting point: 150 to 152 °C
- inhibition of Edg-1 receptors (human Edg-1 receptors [4]; FIG. 1-3): specifically inhibited
- IC50 (human Edg-1 receptors [4]; Table 2, inhibition of S1P response, read-out: Edg 1 IC50): 1.69 µM
